From patent US11365204B2, “Substituted dihydrothienopyrimidines and their use as phosphodiesterase inhibitors” (UNION therapeutics A/S, priority 2017, dated 2022)

Tests used:
[1] = test system: Human peripheral blood mononuclear cells (PBMC); assay: TNF-α release from LPS-stimulated PBMC; format: cell-based; conditions: Lipopolysaccharide 1 microg/ml, 18 hours, AlphaLISA, read-out: TNF-α IC50 range
Experimental: Human peripheral blood mononuclear cells (PBMC) were isolated from fresh buffy coats by density centrifugation using lymphoprep tubes (Medinor). Frozen PBMC's were washed in serum free assay buffer (RPMI1640 with 25 mM HEPES, 1% pen/strep, […] L glutamine, 0.5% human serum albumin) and living cells counted. Lipopolysaccharide (1 microg/ml; SIGMA) was added to the cells which were then transferred to 384 well tissue culture plates ([…]) containing titrated test compounds. The cells were incubated for 18 hours at 37° C. in serum free assay buffer and the level of TNFalpha in the supernatant was quantitated by AlphaLISA (PerkinElmer) by measuring fluorescence intensity at 615 nm.
Results were expressed as IC50 values calculated from inhibition curves using as controls the secretion in LPS stimulated wells and the secretion in cells incubated with 10 microM of a PDE4 inhibitor reference compound.

[2] = biological target: human PDE4D catalytic domain (UniProt no. Q08499 [S380-L740]) (Homo sapiens (Human), UniProt Q08499); assay: PDE4 assay (TR-FRET, cAMP hydrolysis); format: biochemical; conditions: read-out: PDE4 IC50 range
Experimental: The human PDE4D catalytic domain (UniProt no. Q08499 [S380-L740]) was incubated with a mixture of non-labelled cAMP (cyclic adenosine monophosphate) and fluorescein amidite (FAM) conjugated cAMP and titrated test or reference compound.
Following brief incubation the enzymatic reaction was stopped by addition of binding buffer containing nanoparticles with immobilized trivalent metal ions capable of binding 1) AMP phospho groups and 2) terbium (Tb) donor fluorophores. Subsequent excitation of the Tb donor triggered time-resolved FRET to adjacent FAM acceptor molecules resulting in light emission. In the presence of a PDE4 inhibitor, AMP generation was reduced resulting in a lower fluorescence signal. The cAMP phosphodiester is not bound by the detection system.
Results were expressed as IC50 values (nM) calculated from inhibition curves where the TR-FRET signal was normalized to Tb fluorescence intensity and the negative (DMSO vehicle) and positive (10 microM a PDE4 inhibitor reference compound) controls.

Sequence of human PDE4D catalytic domain (Q08499 380-740): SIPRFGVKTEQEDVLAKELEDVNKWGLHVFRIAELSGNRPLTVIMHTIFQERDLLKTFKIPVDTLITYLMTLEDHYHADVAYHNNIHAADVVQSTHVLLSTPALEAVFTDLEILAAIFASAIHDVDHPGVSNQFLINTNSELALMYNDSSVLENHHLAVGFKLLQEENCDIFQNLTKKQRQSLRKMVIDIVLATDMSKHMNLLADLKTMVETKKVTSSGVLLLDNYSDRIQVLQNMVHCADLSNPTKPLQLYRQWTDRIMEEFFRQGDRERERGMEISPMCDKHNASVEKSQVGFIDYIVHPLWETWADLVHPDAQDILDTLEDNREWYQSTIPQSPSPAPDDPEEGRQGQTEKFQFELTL

Row | SMILES | IC50 [1] | IC50 [2]
1 | CCc1cc(C(=O)OC2CN(c3nc4c(c(N(C)C5CCOCC5)n3)[S+]([O-])CC4)C2)nn1C (stereo not shown) [Example 45, [1-[4-[methyl(tetra-hydropyran-4-yl)amino]-5-oxido-6,7-dihydro-thieno[3,2-d]pyrimidin-5-ium-2-yl]azetidin-3-yl] 5-ethyl-1-methyl-pyrazole-3-carboxylate] | < 100 nM | < 100 nM
2 | CCc1nc(C(=O)OC2CN(c3nc4c(c(N(C)C5CCOCC5)n3)[S+](O)CC4)C2)cs1 (stereo not shown) [Example 46, [1-[4-[methyl(tetra-hydropyran-4-yl)amino]-5-oxido-6,7-dihydro-thieno[3,2-d]pyrimidin-5-ium-2-yl]azetidin-3-yl] 2-ethylthiazole-4-carboxylate] | < 100 nM | < 100 nM
3 | CC(=O)c1cccc(C(=O)OC2CN(c3nc4c(c(N(C)C5CCOCC5)n3)[S+](O)CC4)C2)c1 (stereo not shown) [Example 47, [1-[4-[methyl(tetra-hydropyran-4-yl)amino]-5-oxido-6,7-dihydro-thieno[3,2-d]pyrimidin-5-ium-2-yl]azetidin-3-yl] 3-acetylbenzoate] | < 100 nM | < 100 nM
4 | CC(=O)c1ccc(C(=O)OC2CN(c3nc4c(c(N(C)C5CCOCC5)n3)[S+](O)CC4)C2)cc1 (stereo not shown) [Example 48, [1-[4-[methyl(tetra-hydropyran-4-yl)amino]-5-oxido-6,7-dihydro-thieno[3,2-d]pyrimidin-5-ium-2-yl]azetidin-3-yl] 4-acetylbenzoate] | < 100 nM | < 100 nM
5 | CC(=O)N1CCC(C(=O)OC2CN(c3nc4c(c(N(C)C5CCOCC5)n3)[S+](O)CC4)C2)CC1 (stereo not shown) [Example 49, [1-[4-[methyl(tetra-hydropyran-4-yl)amino]-5-oxido-6,7-dihydro-thieno[3,2-d]pyrimidin-5-ium-2-yl]azetidin-3-yl] 1-acetylpiperidine-4-carboxylate] | < 100 nM | < 100 nM
6 | CN(c1nc(N2CC(OC(=O)C3CCS(=O)(=O)CC3)C2)nc2c1[S+](O)CC2)C1CCOCC1 (stereo not shown) [Example 50, [1-[4-[methyl(tetra-hydropyran-4-yl)amino]-5-oxido-6,7-dihydro-thieno[3,2-d]pyrimidin-5-ium-2-yl]azetidin-3-yl] 1,1-dioxothiane-4-carboxylate] | 100 to 500 nM | 100 to 500 nM
7 | CNC(=O)c1ccc(C(=O)OC2CN(c3nc4c(c(N(C)C5CCOCC5)n3)[S+](O)CC4)C2)cc1 (stereo not shown) [Example 51, [1-[4-[methyl(tetra-hydropyran-4-yl)amino]-5-oxido-6,7-dihydro-thieno[3,2-d]pyrimidin-5-ium-2-yl]azetidin-3-yl] 4-(methylcarbamoyl)-benzoate] | < 100 nM | < 100 nM
8 | COC(=O)N1CCC(C(=O)OC2CN(c3nc4c(c(N(C)C5CCOCC5)n3)[S+](O)CC4)C2)CC1 (stereo not shown) [Example 52, O1-methyl O4-[1-[4-[methyl(tetrahydro-pyran-4-yl)amino]-5-oxido-6,7-dihydro-thieno[3,2-d]pyrimidin-5-ium-2-yl]azetidin-3-yl] piperidine-1,4-dicarboxylate] | < 100 nM | < 100 nM
9 | CN(C)C(=O)c1ccc(C(=O)OC2CN(c3nc4c(c(N(C)C5CCOCC5)n3)[S+](O)CC4)C2)cc1 (stereo not shown) [Example 53, [1-[4-[methyl(tetra-hydropyran-4-yl)amino]-5-oxido-6,7-dihydro-thieno[3,2-d]pyrimidin-5-ium-2-yl]azetidin-3-yl] 4-(dimethylcarbamoyl)-benzoate] | < 100 nM | < 100 nM
10 | CN(c1nc(N2CC(OC(=O)c3ccc(S(C)(=O)=O)cc3)C2)nc2c1[S+](O)CC2)C1CCOCC1 (stereo not shown) [Example 54, [1-[4-[methyl(tetra-hydropyran-4-yl)amino]-5-oxido-6,7-dihydro-thieno[3,2-d]pyrimidin-5-ium-2-yl]azetidin-3-yl] 4-methylsulfonyl-benzoate] | < 100 nM | < 100 nM
11 | CN(C)C(=O)N1CCC(C(=O)OC2CN(c3nc4c(c(N(C)C5CCOCC5)n3)[S+](O)CC4)C2)CC1 (stereo not shown) [Example 55, [1-[4-[methyl(tetra-hydropyran-4-yl)amino]-5-oxido-6,7-dihydro-thieno[3,2-d]pyrimidin-5-ium-2-yl]azetidin-3-yl] 1-(dimethylcarbamoyl)-piperidine-4-carboxylate] | < 100 nM | < 100 nM
12 | CCS(=O)(=O)c1cccc(C(=O)OC2CN(c3nc4c(c(N(C)C5CCOCC5)n3)[S+]([O-])CC4)C2)c1 (stereo not shown) [Example 56, [1-[4-[methyl(tetra-hydropyran-4-yl)amino]-5-oxido-6,7-dihydro-thieno[3,2-d]pyrimidin-5-ium-2-yl]azetidin-3-yl] 3-ethylsulfonylbenzoate] | < 100 nM | < 100 nM
13 | CCS(=O)(=O)c1ccc(C(=O)OC2CN(c3nc4c(c(N(C)C5CCOCC5)n3)[S+]([O-])CC4)C2)cc1 (stereo not shown) [Example 57, [1-[4-[methyl(tetra-hydropyran-4-yl)amino]-5-oxido-6,7-dihydro-thieno[3,2-d]pyrimidin-5-ium-2-yl]azetidin-3-yl] 4-ethylsulfonylbenzoate] | < 100 nM | < 100 nM
14 | CNS(=O)(=O)c1ccc(C(=O)OC2CN(c3nc4c(c(N(C)C5CCOCC5)n3)[S+]([O-])CC4)C2)cc1 (stereo not shown) [Example 58, [1-[4-[methyl(tetra-hydropyran-4-yl)amino]-5-oxido-6,7-dihydro-thieno[3,2-d]pyrimidin-5-ium-2-yl]azetidin-3-yl] 4-(methylsulfamoyl)-benzoate] | < 100 nM | < 100 nM
15 | CC(C)S(=O)(=O)c1cccc(C(=O)OC2CN(c3nc4c(c(N(C)C5CCOCC5)n3)[S+](O)CC4)C2)c1 (stereo not shown) [Example 59, [1-[4-[methyl(tetra-hydropyran-4-yl)amino]-5-oxido-6,7-dihydro-thieno[3,2-d]pyrimidin-5-ium-2-yl]azetidin-3-yl] 3-isopropylsulfonyl-benzoate] | < 100 nM | < 100 nM
16 | CC(C)S(=O)(=O)c1ccc(C(=O)OC2CN(c3nc4c(c(N(C)C5CCOCC5)n3)[S+]([O-])CC4)C2)cc1 (stereo not shown) [Example 60, [1-[4-[methyl(tetra-hydropyran-4-yl)amino]-5-oxido-6,7-dihydro-thieno[3,2-d]pyrimidin-5-ium-2-yl]azetidin-3-yl] 4-isopropylsulfonyl-benzoate] | < 100 nM | < 100 nM
17 | CN(c1nc(N2CC(OC(=O)c3ccc(C(=O)N4CCOCC4)cc3)C2)nc2c1[S+](O)CC2)C1CCOCC1 (stereo not shown) [Example 61, [1-[4-[methyl(tetra-hydropyran-4-yl)amino]-5-oxido-6,7-dihydro-thieno[3,2-d]pyrimidin-5-ium-2-yl]azetidin-3-yl] 4-(morpholine-4-carbonyl)benzoate] | < 100 nM | < 100 nM
18 | CN(c1nc(N2CC(OC(=O)c3ccc(S(=O)(=O)C4CCCC4)cc3)C2)nc2c1[S+]([O-])CC2)C1CCOCC1 (stereo not shown) [Example 62, [1-[4-[methyl(tetra-hydropyran-4-yl)amino]-5-oxido-6,7-dihydro-thieno[3,2-d]pyrimidin-5-ium-2-yl]azetidin-3-yl] 4-cyclopentylsulfonyl-benzoate] | < 100 nM | < 100 nM
19 | CN(c1nc(N2CC(OC(=O)c3cccnc3)C2)nc2c1[S@+](O)CC2)C1CCOCC1 [Example 63, [1-[(5R)-4-[methyl-(tetrahydropyran-4-yl)amino]-5-oxido-6,7-dihydrothieno[3,2-d]pyrimidin-5-ium-2-yl]azetidin-3-yl] pyridine-3-carboxylate] | < 100 nM | 100 to 500 nM
20 | Cc1ccc(C(=O)OC2CN(c3nc4c(c(N(C)C5CCOCC5)n3)[S@+](O)CC4)C2)cc1 [Example 64, [1-[(5R)-4-[methyl-(tetrahydropyran-4-yl)amino]-5-oxido-6,7-dihydrothieno[3,2-d]pyrimidin-5-ium-2-yl]azetidin-3-yl] 4-methylbenzoate] | < 100 nM | < 100 nM
21 | O=C(OC1CN(c2nc3c(c(NC4CC5(COC5)C4)n2)[S+](O)CC3)C1)c1cscn1 (stereo not shown) [Example 66, [1-[4-(6-oxaspiro[3.3]-heptan-2-ylamino)-5-oxido-6,7-dihydrothieno-[3,2-d]pyrimidin-5-ium-2-yl]azetidin-3-yl] thiazole-4-carboxylate] | < 100 nM | < 100 nM
22 | O=C(OC1CN(c2nc3c(c(NC4CC5(COC5)C4)n2)[S+]([O-])CC3)C1)C1CCOCC1 (stereo not shown) [Example 67, [1-[4-(6-oxaspiro[3.3]-heptan-2-ylamino)-5-oxido-6,7-dihydro-thieno[3,2-d]pyrimidin-5-ium-2-yl]azetidin-3-yl] tetrahydropyran-4-carboxylate] | < 100 nM | < 100 nM
23 | CC(=O)N1CC[C@H](Nc2nc(N3CC(OC(=O)c4cscn4)C3)nc3c2[S@+](O)CC3)C1 [Example 73, [1-[4-[[(3S)-1-acetyl-pyrrolidin-3-yl]amino]-5-oxido-6,7-dihydro-thieno[3,2-d]pyrimidin-5-ium-2-yl]azetidin-3-yl]thiazole-4-carboxylate] | 100 to 500 nM | < 100 nM
